As usually defined, the IC50 is the midpoint of a concentration-inhibition curve. Read a low IC50 as greater potency in that assay.

The target in assay [1] is T1, PARP1 (His6-PARP1, full length) (Homo sapiens, UniProt P09874).
T1 construct: His6-PARP1 (full length)
The experiment in a line: μHTS-TNKS-IWR2 TR-FRET binding assay with His6-PARP1 in place of TNKS1. Conditions: Table I. The protocol:
(§1) μHTS-TNKS-IWR2TR-FRET Binding Assay
(§2) (10 μL/well in BD1536-well plate, a single point)
(§3) Alternatively, in place of His6-TNKS1 can use either His6-tankyrase 2 (construct: 934-1166) (His6-TNKS2) or His6-PARP1 (full length).
(§4) Biotin-IWR2: 10 mM Biotin-IWR2 stock in DMSO, stored at −20° C.
Positive control: 10 mM […] in DMSO, stored at −20° C.
(§5) Prepare Biotinylated IWR2 stock solution (3.33× stock) for TOTL and cpd wells: 200 nM Biotin-IWR2 in 5% DMSO/AB1b buffer
(§6) Prepare POSITIVE CONTROL well stock solution (3.33× stock): 200 nM XAV939 in 200 nM Biotin-IWR2/5% DMSO/AB1b buffer
(§7) (Alternatively, use TNKS2 or PARP1 stock solutions.)
(§8) Prepare Eu/APC stock solution (5× stock): 3.5 nM Eu-SA/50 nM APC-His6Ab in AB2 buffer
(§9) Add 25 μL/well 1.5% DMSO/AB1c buffer in each compound well to the compound concentration at 74 μM in 8.8% DMSO/AB1c buffer or in the 2 μL DMSO CONTROL wells (BLANK, TOTAL and POSITIVE wells) in the compound plate.
(§10) Transfer 3 μL/well above solution (solution 1,2,3) to an empty assay plate (BD1536-well plate) as follows:
(§11) Transfer 3 μL/well of the above diluted compound solutions or compound dilution buffer to the above assay plate.
(§12) Add 2 μL/well of 300 nM TNKS stock solution (4) to every well in the above assay plate.
(§13) Incubate the assay plate at 26° C. for 30 minutes.
(§14) Incubate the assay plate at 26° C. for 60 minutes.
(§15) Read the assay plate immediately at excitation wavelength of 330 nm and emission wavelength of […] in time resolved fluorescence mode.
(§16) Representative compound data for assays are listed below in Table I. Values are in uM.
(In general: TR-FRET usually uses a lanthanide donor and a delayed reading to cut background.)

A further assay concerns the target T2, tankyrase 2 (His6-TNKS2) (Homo sapiens, UniProt Q9H2K2).
T2 construct: His6-tankyrase 2 (construct: 934-1166)
The experiment in a line: μHTS-TNKS-IWR2 TR-FRET binding assay with His6-TNKS2 in place of TNKS1. Conditions: Table I. The procedure: as §1, §2, §3, §4
Positive control: 10 mM XAV 939 in DMSO, stored at −20° C.
as §5, §6, §7, §8, §9, §10, §11, §12, §13, §14, §15, §16

The target in the next assay is T3, Tankyrase 1 (TNKS1) (Homo sapiens, UniProt O95271).
T3 construct: construct: 1088-1327, 1266M
The assay can be described thus: μHTS-TNKS-IWR2 TR-FRET binding assay (TNKS1). The protocol:
as §1, §2
Reagents and Stock Solutions
as §4
Assay buffer 1a (AB 1a) for TNKS dilution: 50 mM Tris, pH 7.4, 100 mM sodium chloride solution, 1 mM magnesium chloride solution, 1 mM DL-dithiothreitol solution, 0.2 mg/mL bovine serum albumin solution, 0.025% NP-40.
Assay buffer 1b (AB 1b) for Biotin-IWR2 dilution: 50 mM Tris, pH 7.4, 100 mM sodium chloride solution, 1 mM magnesium chloride solution, 1 mM DL-dithiothreitol solution, 0.2 mg/mL bovine serum albumin solution, 0.05% NP-40
Assay buffer 1c (AB 1c) for compound dilution: 50 mM Tris, pH 7.4, 100 mM sodium chloride solution, 1 mM magnesium chloride solution, 1 mM DL-dithiothreitol solution, 0.2 mg/mL bovine serum albumin solution
Assay buffer 2 (AB2) for Eu/APC: 50 mM Tris, pH 7.4, 100 mM sodium chloride solution, 1 mM magnesium chloride solution, 0.2 mg/mL bovine serum albumin solution
Reagent Stock Solution Preparation
Prepare BLANK well stock solution: 5% DMSO/AB1b buffer
Prepare TNKS1 stock solution (5× stock): 300 nM TNKS in AB1a buffer
as §10
TOTL and cpd wells: Solution 1 (Biotin-IWR2):
BLNK wells: Solution 2 (No Biotin-IWR2):
POSITIVE CONTROL wells: Solution 3 (Biotin-IWR2+XAV939)
as §11, §12
Centrifuge the assay plate at 2100 rpm for 2 minutes.
as §13, §14

Each structure is given as a SMILES string. Bounds are passed on as bounds.

T1 sequence (P09874 whole entry): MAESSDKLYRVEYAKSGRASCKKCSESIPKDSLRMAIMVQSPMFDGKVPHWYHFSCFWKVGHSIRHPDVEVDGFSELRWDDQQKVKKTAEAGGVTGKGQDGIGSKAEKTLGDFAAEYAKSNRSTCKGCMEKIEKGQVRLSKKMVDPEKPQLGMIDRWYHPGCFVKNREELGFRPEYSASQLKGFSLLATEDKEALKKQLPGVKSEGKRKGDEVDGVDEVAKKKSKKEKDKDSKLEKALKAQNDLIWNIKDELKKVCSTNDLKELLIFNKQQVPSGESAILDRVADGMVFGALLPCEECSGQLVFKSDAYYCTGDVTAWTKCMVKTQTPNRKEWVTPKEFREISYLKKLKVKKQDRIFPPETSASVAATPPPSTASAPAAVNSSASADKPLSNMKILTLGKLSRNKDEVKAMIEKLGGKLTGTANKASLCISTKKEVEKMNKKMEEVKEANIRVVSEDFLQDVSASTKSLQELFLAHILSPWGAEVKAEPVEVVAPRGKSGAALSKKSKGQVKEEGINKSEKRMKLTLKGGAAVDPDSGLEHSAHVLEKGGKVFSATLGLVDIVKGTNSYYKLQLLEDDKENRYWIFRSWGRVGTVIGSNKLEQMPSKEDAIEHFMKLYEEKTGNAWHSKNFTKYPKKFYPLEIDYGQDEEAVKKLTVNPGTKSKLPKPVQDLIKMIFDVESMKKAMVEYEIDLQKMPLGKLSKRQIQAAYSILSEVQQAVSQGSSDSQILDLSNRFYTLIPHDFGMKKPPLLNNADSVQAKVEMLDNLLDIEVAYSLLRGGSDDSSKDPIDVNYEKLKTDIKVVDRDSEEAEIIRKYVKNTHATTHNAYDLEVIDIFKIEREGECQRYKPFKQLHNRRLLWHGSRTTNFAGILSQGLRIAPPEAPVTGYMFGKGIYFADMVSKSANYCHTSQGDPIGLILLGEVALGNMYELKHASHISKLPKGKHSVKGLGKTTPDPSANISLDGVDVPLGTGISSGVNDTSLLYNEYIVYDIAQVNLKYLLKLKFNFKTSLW
T3 sequence (O95271 1088-1327): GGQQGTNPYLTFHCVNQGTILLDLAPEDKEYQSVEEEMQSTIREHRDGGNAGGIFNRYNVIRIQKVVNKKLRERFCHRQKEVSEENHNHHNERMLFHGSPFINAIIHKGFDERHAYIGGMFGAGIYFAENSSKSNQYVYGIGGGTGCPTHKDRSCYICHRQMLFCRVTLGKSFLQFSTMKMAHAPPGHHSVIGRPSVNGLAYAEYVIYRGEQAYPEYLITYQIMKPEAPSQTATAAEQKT
T2 sequence (Q9H2K2 934-1166): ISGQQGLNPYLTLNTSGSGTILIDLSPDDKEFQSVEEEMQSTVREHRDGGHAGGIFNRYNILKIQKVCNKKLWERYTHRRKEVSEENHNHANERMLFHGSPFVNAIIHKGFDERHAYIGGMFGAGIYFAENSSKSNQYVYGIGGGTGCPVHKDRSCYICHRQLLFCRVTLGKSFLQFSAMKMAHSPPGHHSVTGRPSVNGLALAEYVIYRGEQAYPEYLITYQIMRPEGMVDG

For the compound `Cn1ccc2c(=O)[nH]c(N3CCN(c4cnccn4)CC3)nc21` [Example 31, 7-Methyl-2-(2,3,5,6-tetrahydro-[1,2′]bipyrazinyl-4-yl)-3,7-dihydro-pyrrolo[2,3-d]pyrimidin-4-one], the IC50 in assay [1] is 318 nM; on tankyrase 2 (His6-TNKS2) it was 133 nM; on Tankyrase 1 (TNKS1) it was 155 nM.

For `CCOc1ccc(-c2nc3c(ccn3C)c(=O)[nH]2)cn1` [Example 40, 2-(6-Ethoxy-pyridin-3-yl)-7-methyl-3,7-dihydro-pyrrolo[2,3-d]pyrimidin-4-one], the IC50 in assay [1] turned out to be 289 nM; at tankyrase 2 (His6-TNKS2), 109 nM; on Tankyrase 1 (TNKS1), 117 nM.

As for `Cn1ccc2c(=O)[nH]c(N3CCN(c4ncccc4C#N)CC3)nc21` [Example 9, 2-[4-(7-Methyl-4-oxo-4,7-dihydro-3H-pyrrolo[2,3-d]pyrimidin-2-yl)-piperazin-1-yl]-nicotinonitrile], the IC50 was found to be 618 nM in assay [1], 63 nM on tankyrase 2 (His6-TNKS2) and 70 nM at Tankyrase 1 (TNKS1).

Consider `Cn1ccc2c(=O)[nH]c(N3CCOCC3)nc21` [Example 12, 7-Methyl-2-morpholin-4-yl-3,7-dihydro-pyrrolo[2,3-d]pyrimidin-4-one], for which the half-inhibitory concentration (IC50) was 1720 nM in assay [1], 1830 nM at tankyrase 2 (His6-TNKS2) and 1910 nM at Tankyrase 1 (TNKS1).

For `Cn1ccc2c(=O)[nH]c(-c3ccc(C(F)(F)F)nc3)nc21` [Example 44, 7-Methyl-2-(6-trifluoromethyl-pyridin-3-yl)-3,7-dihydro-pyrrolo[2,3-d]pyrimidin-4-one], the IC50 in assay [1] is 93.3 nM; on tankyrase 2 (His6-TNKS2) it was 84 nM; on Tankyrase 1 (TNKS1) it was 88 nM.

For `Cn1ccc2c(=O)[nH]c(N3CCN(c4ccc(F)cc4F)CC3)nc21` [Example 20, 2-[4-(2,4-Difluoro-phenyl)-piperazin-1-yl]-7-methyl-3,7-dihydro-pyrrolo[2,3-d]pyrimidin-4-one], the IC50 stood at 1220 nM in assay [1], 36 nM at tankyrase 2 (His6-TNKS2) and 31 nM at Tankyrase 1 (TNKS1).

In the case of `Cn1ccc2c(=O)[nH]c(N3CCC(c4ccc(F)cc4)CC3)nc21` [Example 48, 2-[4-(4-Fluoro-phenyl)-piperidin-1-yl]-7-methyl-3,7-dihydro-pyrrolo[2,3-d]pyrimidin-4-one], the IC50 was 4700 nM in assay [1], 43 nM at tankyrase 2 (His6-TNKS2) and 43 nM on Tankyrase 1 (TNKS1).

For `Cn1ccc2c(=O)[nH]c(-n3cccn3)nc21` [Example 56, 7-Methyl-2-pyrazol-1-yl-3,7-dihydro-pyrrolo[2,3-d]pyrimidin-4-one], the IC50 is greater than 50000 nM in assay [1], 9160 nM on tankyrase 2 (His6-TNKS2) and 7800 nM on Tankyrase 1 (TNKS1).

As for `Cn1ccc2c(=O)[nH]c(N3CCN(c4ccncc4)CC3)nc21` [Example 1, 7-Methyl-2-(4-pyridin-4-yl-piperazin-1-yl)-3,7-dihydro-pyrrolo[2,3-d]pyrimidin-4-one], the IC50 in assay [1] amounted to 143 nM; at tankyrase 2 (His6-TNKS2), 593 nM; at Tankyrase 1 (TNKS1), 722 nM.

For the compound `O=c1[nH]c(-c2ccc(C(F)(F)F)cc2)nc2c1ccn2CCC(O)CO` (stereo not drawn) [Example 53, 7-(3,4-Dihydroxy-butyl)-2-(4-trifluoromethyl-phenyl)-3,7-dihydro-pyrrolo[2,3-d]pyrimidin-4-one], the values for the IC50 (in assay [1]; at tankyrase 2 (His6-TNKS2); at Tankyrase 1 (TNKS1)) were 2380 nM, 168 nM and 240 nM, respectively.

In the case of `Cn1ccc2c(=O)[nH]c(-c3ccc(C(F)(F)F)cc3)nc21` [Example 38, 7-Methyl-2-(4-trifluoromethyl-phenyl)-3,7-dihydro-pyrrolo[2,3-d]pyrimidin-4-one], the results for the IC50 (in assay [1]; at tankyrase 2 (His6-TNKS2); at Tankyrase 1 (TNKS1)) were 785 nM, 45 nM and 38 nM, respectively.

For `CCn1ccc2c(=O)[nH]c(-c3ccc(C(F)(F)F)cc3)nc21` [Example 50, 7-Ethyl-2-(4-trifluoromethyl-phenyl)-3,7-dihydro-pyrrolo[2,3-d]pyrimidin-4-one], the IC50 in assay [1] was greater than 50000 nM; on tankyrase 2 (His6-TNKS2), 163 nM; at Tankyrase 1 (TNKS1) it was 176 nM.

On to `Cn1ccc2c(=O)[nH]c(N3CCN(c4ccccc4)CC3)nc21` [Example 29, 7-Methyl-2-(4-phenyl-piperazin-1-yl)-3,7-dihydro-pyrrolo[2,3-d]pyrimidin-4-one], for which the IC50 in assay [1] is 732 nM; on tankyrase 2 (His6-TNKS2), 45 nM; at Tankyrase 1 (TNKS1) it was 43 nM.

As to `Cn1ccc2c(=O)[nH]c(N3CCN(c4ncccc4C(F)(F)F)CC3)nc21` [Example 6, 7-Methyl-2-[4-(3-trifluoromethyl-pyridin-2-yl)-piperazin-1-yl]-3,7-dihydro-pyrrolo[2,3-d]pyrimidin-4-one], the figures for the IC50 (in assay [1]; at tankyrase 2 (His6-TNKS2); at Tankyrase 1 (TNKS1)) were 2210 nM, 36 nM and 34 nM, respectively.

With `C=CCCn1ccc2c(=O)[nH]c(N3CCN(c4ccccc4Cl)CC3)nc21` [Example 27, 7-But-3-enyl-2-[4-(2-chloro-phenyl)-piperazin-1-yl]-3,7-dihydro-pyrrolo[2,3-d]pyrimidin-4-one], the values for the IC50 (in assay [1]; at tankyrase 2 (His6-TNKS2); on Tankyrase 1 (TNKS1)) were greater than 50000 nM, 6790 nM and 5670 nM, respectively.

As to `Cn1ccc2c(=O)[nH]c(N3C[C@@H]4C[C@H]3CN4c3cccc(F)c3)nc21` [Example 33, 2-[(1S,4S)-5-(3-Fluoro-phenyl)-2,5-diaza-bicyclo[2.2.1]hept-2-yl]-7-methyl-3,7-dihydro-pyrrolo[2,3-d]pyrimidin-4-one], the IC50 in assay [1] amounted to 1120 nM; at tankyrase 2 (His6-TNKS2), 6080 nM; on Tankyrase 1 (TNKS1), 6180 nM.

Source of the values: patent US8722661B2, “Pyrrolopyrimidone and pyrrolopyridone inhibitors of tankyrase” (Genentech, Inc., priority 2012, dated 2014).
